Tests used:
Assay in all cases: radiometric filter-binding kinase assay, Kinase HotSpot
Conditions in all cases: compound 0.5 µM; ATP 10 µM
[1] = molecular target: HCK (human) (UniProt P08631)
[2] = molecular target: NEK11 (human) (UniProt Q8NG66)
[3] = molecular target: NUAK2 (human) (UniProt Q9H093)
[4] = molecular target: PRKCD (human) (UniProt Q05655)
[5] = molecular target: MATK (human) (UniProt P42679)
[6] = molecular target: ACVR1 (human) (UniProt Q04771)
[7] = molecular target: DYRK2 (human) (UniProt Q92630)
[8] = molecular target: MAP3K10 (human) (UniProt Q02779)
[9] = molecular target: RPS6KB2 (human) (UniProt Q9UBS0)
[10] = molecular target: PAK7 (human) (UniProt Q9P286)
[11] = molecular target: CSK (human) (UniProt P41240)
[12] = molecular target: CSNK1D (human) (UniProt P48730)
[13] = molecular target: IKBKB (human) (UniProt O14920)
[14] = molecular target: MINK1 (human) (UniProt Q8N4C8)
[15] = molecular target: MARK4 (human) (UniProt Q96L34)
[16] = molecular target: MERTK (human) (UniProt Q12866)
[17] = molecular target: CDK9 CCNK (human) (UniProt O75909+P50750)
[18] = molecular target: ABL2 (human) (UniProt P42684)
[19] = molecular target: EPHA8 (human) (UniProt P29322)
[20] = molecular target: MYLK2 (human) (UniProt Q9H1R3)
[21] = molecular target: PRKCH (human) (UniProt P24723)
[22] = molecular target: DSTYK (human) (UniProt Q6XUX3)
[23] = molecular target: TAOK2 (human) (UniProt Q9UL54)
[24] = molecular target: CDK5 CDK5R1 p35 (human) (UniProt Q00535+Q15078)
[25] = molecular target: PIM3 (human) (UniProt Q86V86)
[26] = molecular target: HIPK2 (human) (UniProt Q9H2X6)
[27] = molecular target: EPHA6 (human) (UniProt Q9UF33)
[28] = molecular target: FER (human) (UniProt P16591)
[29] = molecular target: MAPK13 (human) (UniProt O15264)
[30] = molecular target: FGR (human) (UniProt P09769)
[31] = molecular target: ULK1 (human) (UniProt O75385)
[32] = molecular target: CDC42BPA (human) (UniProt Q5VT25)
[33] = molecular target: BRSK2 (human) (UniProt Q8IWQ3)
[34] = molecular target: INSR (human) (UniProt P06213)
[35] = molecular target: STK11 (human) (UniProt Q15831)
[36] = molecular target: MAP2K2 (human) (UniProt P36507)
[37] = molecular target: EPHB1 (human) (UniProt P54762)
[38] = molecular target: TGFBR1 (human) (UniProt P36897)
[39] = molecular target: TYRO3 (human) (UniProt Q06418)
[40] = molecular target: MARK3 (human) (UniProt P27448)
[41] = molecular target: EPHB4 (human) (UniProt P54760)
[42] = molecular target: PRKCG (human) (UniProt P05129)

TAOK2 (human), sequence (Q9UL54 whole entry, looked up): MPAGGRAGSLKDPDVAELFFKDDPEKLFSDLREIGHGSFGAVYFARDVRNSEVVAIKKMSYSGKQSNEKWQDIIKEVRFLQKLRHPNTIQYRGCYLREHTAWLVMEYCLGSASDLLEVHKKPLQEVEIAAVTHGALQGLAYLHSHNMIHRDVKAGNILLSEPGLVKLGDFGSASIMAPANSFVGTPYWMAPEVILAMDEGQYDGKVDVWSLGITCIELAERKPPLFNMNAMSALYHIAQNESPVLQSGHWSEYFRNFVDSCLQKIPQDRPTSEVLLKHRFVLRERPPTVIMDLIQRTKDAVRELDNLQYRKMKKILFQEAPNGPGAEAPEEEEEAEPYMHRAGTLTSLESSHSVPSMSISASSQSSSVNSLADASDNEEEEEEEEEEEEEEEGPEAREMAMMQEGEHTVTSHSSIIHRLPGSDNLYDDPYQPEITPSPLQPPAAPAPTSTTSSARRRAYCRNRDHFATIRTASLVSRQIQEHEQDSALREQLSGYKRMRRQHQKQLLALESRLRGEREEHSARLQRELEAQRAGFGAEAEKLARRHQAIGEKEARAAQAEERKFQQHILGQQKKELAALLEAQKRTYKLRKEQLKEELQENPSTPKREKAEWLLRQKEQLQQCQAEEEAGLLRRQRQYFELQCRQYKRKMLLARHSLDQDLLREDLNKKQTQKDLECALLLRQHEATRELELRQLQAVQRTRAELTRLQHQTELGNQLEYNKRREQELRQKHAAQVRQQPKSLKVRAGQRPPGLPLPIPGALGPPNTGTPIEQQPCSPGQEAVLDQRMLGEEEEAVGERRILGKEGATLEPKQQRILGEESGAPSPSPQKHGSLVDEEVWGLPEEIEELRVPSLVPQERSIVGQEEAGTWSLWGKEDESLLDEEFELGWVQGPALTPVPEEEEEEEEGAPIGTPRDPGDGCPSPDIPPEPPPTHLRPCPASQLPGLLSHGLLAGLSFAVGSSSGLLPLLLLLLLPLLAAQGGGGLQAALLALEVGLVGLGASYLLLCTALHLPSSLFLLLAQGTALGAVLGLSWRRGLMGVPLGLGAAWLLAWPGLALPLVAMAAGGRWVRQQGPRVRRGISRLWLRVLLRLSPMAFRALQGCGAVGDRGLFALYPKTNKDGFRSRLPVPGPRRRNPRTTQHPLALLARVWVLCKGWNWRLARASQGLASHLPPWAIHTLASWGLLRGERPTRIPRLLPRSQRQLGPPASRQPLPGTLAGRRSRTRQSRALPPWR
EPHB4 (human), sequence (P54760 whole entry, looked up): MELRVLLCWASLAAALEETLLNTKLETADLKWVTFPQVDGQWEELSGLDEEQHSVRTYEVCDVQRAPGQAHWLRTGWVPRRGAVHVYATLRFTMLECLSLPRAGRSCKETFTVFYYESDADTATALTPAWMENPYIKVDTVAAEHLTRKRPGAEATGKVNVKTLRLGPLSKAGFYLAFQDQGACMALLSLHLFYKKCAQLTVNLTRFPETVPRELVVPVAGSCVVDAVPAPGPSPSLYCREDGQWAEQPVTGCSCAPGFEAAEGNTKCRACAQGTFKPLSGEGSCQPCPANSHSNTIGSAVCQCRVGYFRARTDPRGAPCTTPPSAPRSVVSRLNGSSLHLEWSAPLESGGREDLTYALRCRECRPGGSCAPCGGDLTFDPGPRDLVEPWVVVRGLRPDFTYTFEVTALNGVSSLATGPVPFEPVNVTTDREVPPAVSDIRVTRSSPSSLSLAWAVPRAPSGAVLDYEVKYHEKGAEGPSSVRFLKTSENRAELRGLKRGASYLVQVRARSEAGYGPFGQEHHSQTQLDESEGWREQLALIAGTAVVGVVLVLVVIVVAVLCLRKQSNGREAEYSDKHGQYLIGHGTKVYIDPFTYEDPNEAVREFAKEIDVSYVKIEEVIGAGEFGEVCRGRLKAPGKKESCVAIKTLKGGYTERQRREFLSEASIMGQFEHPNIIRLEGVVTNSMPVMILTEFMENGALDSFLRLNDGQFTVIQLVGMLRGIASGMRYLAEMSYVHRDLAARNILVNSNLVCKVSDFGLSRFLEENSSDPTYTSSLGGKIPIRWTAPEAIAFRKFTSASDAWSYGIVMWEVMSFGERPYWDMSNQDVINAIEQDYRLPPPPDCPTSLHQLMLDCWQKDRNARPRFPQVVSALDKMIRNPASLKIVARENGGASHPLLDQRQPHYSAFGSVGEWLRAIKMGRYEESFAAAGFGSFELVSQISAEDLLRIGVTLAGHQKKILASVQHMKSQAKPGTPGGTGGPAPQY
CDK9 CCNK (human), sequence (O75909 whole entry, looked up): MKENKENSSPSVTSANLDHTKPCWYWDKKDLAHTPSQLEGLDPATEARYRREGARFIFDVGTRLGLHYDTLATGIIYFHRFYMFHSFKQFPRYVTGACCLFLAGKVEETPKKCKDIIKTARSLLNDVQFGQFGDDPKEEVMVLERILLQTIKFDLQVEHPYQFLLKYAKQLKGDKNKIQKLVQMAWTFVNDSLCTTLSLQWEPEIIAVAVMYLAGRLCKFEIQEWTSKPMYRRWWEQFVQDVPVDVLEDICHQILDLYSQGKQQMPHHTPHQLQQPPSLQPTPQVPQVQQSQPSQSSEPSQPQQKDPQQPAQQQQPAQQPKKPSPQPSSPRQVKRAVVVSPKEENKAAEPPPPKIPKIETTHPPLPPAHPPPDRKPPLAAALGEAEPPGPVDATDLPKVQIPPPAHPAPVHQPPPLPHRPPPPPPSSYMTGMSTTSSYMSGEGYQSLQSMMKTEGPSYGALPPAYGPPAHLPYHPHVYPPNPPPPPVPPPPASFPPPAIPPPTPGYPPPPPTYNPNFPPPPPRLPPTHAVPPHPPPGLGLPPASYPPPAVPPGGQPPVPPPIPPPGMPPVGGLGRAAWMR
CDK9 CCNK (human), sequence (P50750 whole entry, looked up): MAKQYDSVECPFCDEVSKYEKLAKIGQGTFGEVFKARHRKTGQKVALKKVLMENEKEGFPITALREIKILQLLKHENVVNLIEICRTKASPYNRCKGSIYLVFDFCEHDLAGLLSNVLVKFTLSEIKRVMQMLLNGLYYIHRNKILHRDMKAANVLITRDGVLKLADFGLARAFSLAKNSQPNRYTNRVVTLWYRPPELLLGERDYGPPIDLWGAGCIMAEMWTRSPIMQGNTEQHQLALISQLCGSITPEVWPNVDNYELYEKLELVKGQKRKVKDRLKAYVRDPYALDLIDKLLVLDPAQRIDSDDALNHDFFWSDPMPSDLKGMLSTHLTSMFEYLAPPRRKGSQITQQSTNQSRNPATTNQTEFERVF
ULK1 (human), sequence (O75385 whole entry, looked up): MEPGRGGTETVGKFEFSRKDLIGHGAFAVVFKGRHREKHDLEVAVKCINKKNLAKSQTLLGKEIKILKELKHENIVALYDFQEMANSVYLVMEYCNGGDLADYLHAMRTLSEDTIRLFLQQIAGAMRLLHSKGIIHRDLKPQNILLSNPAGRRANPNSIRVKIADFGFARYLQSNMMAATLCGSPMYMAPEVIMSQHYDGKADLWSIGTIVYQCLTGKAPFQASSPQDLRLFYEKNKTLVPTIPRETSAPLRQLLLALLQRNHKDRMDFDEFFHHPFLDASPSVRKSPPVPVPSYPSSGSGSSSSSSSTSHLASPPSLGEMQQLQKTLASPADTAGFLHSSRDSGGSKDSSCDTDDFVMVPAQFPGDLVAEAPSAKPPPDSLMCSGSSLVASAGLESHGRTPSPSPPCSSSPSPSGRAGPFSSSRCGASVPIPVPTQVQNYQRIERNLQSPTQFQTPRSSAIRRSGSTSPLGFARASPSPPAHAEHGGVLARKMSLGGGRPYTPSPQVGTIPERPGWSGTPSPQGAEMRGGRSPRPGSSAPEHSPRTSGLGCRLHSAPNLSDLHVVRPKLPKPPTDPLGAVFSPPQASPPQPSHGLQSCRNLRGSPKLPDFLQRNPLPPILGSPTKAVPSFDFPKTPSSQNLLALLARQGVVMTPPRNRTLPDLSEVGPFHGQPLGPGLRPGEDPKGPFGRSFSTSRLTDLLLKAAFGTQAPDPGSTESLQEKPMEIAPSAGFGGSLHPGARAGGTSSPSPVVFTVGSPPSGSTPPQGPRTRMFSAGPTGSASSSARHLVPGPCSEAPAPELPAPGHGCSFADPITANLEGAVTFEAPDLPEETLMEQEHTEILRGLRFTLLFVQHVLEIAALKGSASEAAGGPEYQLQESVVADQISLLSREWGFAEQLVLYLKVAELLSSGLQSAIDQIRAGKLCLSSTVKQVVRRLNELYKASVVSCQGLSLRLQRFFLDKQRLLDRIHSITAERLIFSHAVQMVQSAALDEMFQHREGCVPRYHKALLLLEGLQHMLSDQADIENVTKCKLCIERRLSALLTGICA
MAP2K2 (human), sequence (P36507 whole entry, looked up): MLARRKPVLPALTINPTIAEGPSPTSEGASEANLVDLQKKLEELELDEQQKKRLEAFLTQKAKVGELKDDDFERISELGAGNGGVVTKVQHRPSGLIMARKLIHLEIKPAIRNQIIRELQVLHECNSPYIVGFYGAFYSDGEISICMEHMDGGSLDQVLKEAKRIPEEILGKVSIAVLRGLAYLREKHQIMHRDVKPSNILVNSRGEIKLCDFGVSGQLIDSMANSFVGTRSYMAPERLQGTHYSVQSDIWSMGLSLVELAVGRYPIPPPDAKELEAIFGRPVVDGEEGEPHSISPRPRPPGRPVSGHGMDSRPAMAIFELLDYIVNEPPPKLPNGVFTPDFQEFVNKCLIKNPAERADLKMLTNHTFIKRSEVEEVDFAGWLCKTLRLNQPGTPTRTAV

For `O=C1Nc2ccc(Cl)cc2/C1=C/c1cc(Cl)c(O)c(Cl)c1`, the residual activity [1] was 83.2%, the residual activity [2] was 104% and the residual activity [3] was 78.7%. The residual activity [4] was 86.7%, the residual activity [5] was 82.2% and the residual activity [6] was 130%. The residual activity [7] was 94%, the residual activity [8] was 86.8% and the residual activity [9] was 98.2%. For the same compound, the residual activity [10] was 91.5%, the residual activity [11] was 85% and the residual activity [12] was 89.6%. The residual activity [13] was 93.6%, the residual activity [14] was 22.4% and the residual activity [15] was 78.4%. The residual activity [16] was 88.4%, the residual activity [17] was 79.4% and the residual activity [18] was 80.4%. For the same compound, the residual activity [19] was 91.5%, the residual activity [20] was 71.5% and the residual activity [21] was 90.8%. For the same compound, the residual activity [22] was 89.6%, the residual activity [23] was 81.3% and the residual activity [24] was 94.5%. It also gave a residual activity [25] of 14.5%, a residual activity [26] of 122% and a residual activity [27] of 72.8%. It also gave a residual activity [28] of 92.1%, a residual activity [29] of 97.8% and a residual activity [30] of 84.8%. For the same compound, the residual activity [31] was 95%, the residual activity [32] was 96.1% and the residual activity [33] was 77.2%. The residual activity [34] was 99.2%, the residual activity [35] was 93.1% and the residual activity [36] was 82%. The residual activity [37] was 91%, the residual activity [38] was 102% and the residual activity [39] was 94.9%. The residual activity [40] was 81.1% and the residual activity [41] was 100%.

With `c1ccc(-c2n[nH]cc2-c2ccnc3ccccc23)nc1` the residual activity [1] was 98.5%, the residual activity [2] was 91.8% and the residual activity [3] was 135%. It also gave a residual activity [4] of 96.6%, a residual activity [5] of 87.9% and a residual activity [6] of 106%. It also gave a residual activity [42] of 117%, a residual activity [7] of 113% and a residual activity [8] of 104%. It also gave a residual activity [9] of 101%, a residual activity [10] of 97.1% and a residual activity [11] of 102%. It also gave a residual activity [12] of 44.2%, a residual activity [13] of 105% and a residual activity [14] of 84.1%. It also gave a residual activity [15] of 105%, a residual activity [16] of 92.6% and a residual activity [17] of 98.7%. The residual activity [18] was 67.8%, the residual activity [19] was 94.6% and the residual activity [20] was 98.3%. It also gave a residual activity [21] of 94.6%, a residual activity [22] of 98.3% and a residual activity [23] of 96.8%. For the same compound, the residual activity [24] was 98.6%, the residual activity [25] was 90.6% and the residual activity [26] was 91.3%. It also gave a residual activity [27] of 98.8%, a residual activity [28] of 86% and a residual activity [29] of 110%. The residual activity [30] was 91.9%, the residual activity [31] was 85.9% and the residual activity [33] was 101%. For the same compound, the residual activity [34] was 86.7%, the residual activity [35] was 82.6% and the residual activity [36] was 106%. The residual activity [37] was 98.7%, the residual activity [38] was 41.6% and the residual activity [39] was 124%. It also gave a residual activity [40] of 87.5% and a residual activity [41] of 89.1%.
